Test results taken from patent publication US20100266712A1, “Prevention of Acute Kidney Injury” (Austin Health, priority 2007, published 2010).

What was measured:
[1] = system: high-risk cardiac surgical patients undergoing cardiopulmonary bypass
Description: (§1) Body weight adjusted dose of study medication was achieved by infusion of 154 mEq/L of sodium bicarbonate (Pfizer, Bentley, WA, Australia) or sodium chloride (Astra Zeneca, North Ryde, NSW, Australia) diluted in 5% dextrose (Baxter, Sydney, NSW, Australia) and H2O at an infusion rate of 3 mL kg^−1 h^−1 for 1 hour immediately after the induction of anesthesia, prior to the first surgical incision followed by continuous infusion at an infusion rate of 1 mL kg^−1 n^−1 over 23 hours. Sodium bicarbonate or sodium chloride was administered at a dose of 0.45 mEq/kg body weight over 1 hour followed by continuous intravenous infusion of 0.15 mEq/kg/hr over 23 hours (total dose of 4 mEq/kg over 24 hours).
Additional secondary outcomes included changes in acid-base status, clinical outcomes such as need for renal replacement therapy, duration of ventilation, length of intensive care unit and hospital stay, and adverse events.
(§2) All data were analyzed according to the intention-to-treat principle. Continuous data were tested for normal distribution using histograms. Between-group comparisons for continuous data were performed with the use of the t test or the Mann-Whitney U test and for categorical data with the use of Fisher exact test or chi-square test where appropriate. All tests were 2-tailed and a P value <0.05 was taken to indicate statistical significance. Values were reported as means with standard error of the mean (SEM) and mean difference or odds ratio (OR) with 95% confidence interval (95% CI) estimate as appropriate.

[2] = system: high-risk cardiac surgical patients undergoing cardiopulmonary bypass; remark: listed apart in the source
Description: A double-blind, randomised, placebo controlled trial of the effect of sodium bicarbonate on postoperative renal function and oxidative stress in subjects undergoing elective cardiopulmonary bypass surgery was conducted.
The Human Research Ethics Committee of the Austin Hospital approved the trial and the Therapeutic Goods Administration of the Australian Government, Department of Health and Ageing approved the use of sodium bicarbonate for this indication. Written informed consent was obtained from each patient. Patients were identified in surgical pre-admission clinics and on hospital wards. Patients who were enrolled were at high risk of post-operative AKI and were scheduled for elective cardiac surgery necessitating the use of CPB at a university tertiary referral hospital (Austin Hospital) and a co-located large private hospital (Warringal Hospital). Those considered at high risk for post-operative AKI, defined as fulfilling one or more pre-defined inclusion criteria and no exclusion criteria, were considered eligible. Patients at particular risk of post-bypass renal injury were defined as having at least one of the following: (a) age >70; (b) preoperative creatinine […]; (c) New York Heart Association symptom severity class 3 or 4; (d) valve surgery; (e) insulin dependent diabetes mellitus; or (f) redo surgery.
as §1
The hospital pharmacy clinical trials coordinator used a Microsoft Excel-based (Microsoft Corp. Redmond, Wash., USA) random number generator to create the randomization list using a permuted block strategy with blocks of six. Infusion bags were each delivered in separate shrink-wrapped black plastic bags that were identical in appearance. Allocation concealment to patients, anesthesiologists, cardiac surgeons, intensive care specialists, bedside nurses and investigators (multiple blind) was ensured by central randomization through the Department of Pharmacy at the Austin Hospital.
The primary study outcome measure was the number of patients who developed post-operative acute kidney injury. This was defined as an increase in plasma creatinine concentration greater than 0.5 mg/dL (44 μmol/L) or greater than 25% from baseline to peak value at any time within the first five post-operative days. This definition is identical to that used in a recent large randomized controlled trial of cardiac surgery-associated AKI.
The renal secondary outcomes for this study were changes in plasma creatinine concentration within the first five post-operative days and in urinary neutrophil gelatinase-associated lipocalin (NGAL) concentration within the first 24 hours post-operatively. Creatinine was sampled daily and NGAL was sampled prior to induction of anesthesia, at 6 hours and at 24 hours after commencement of CPB. Creatinine was measured using the modified Jaffé method and NGAL as recently described (Mishra et al, 2005).
All data were analyzed according to the intention-to-treat principle. Continuous data were tested for normal distribution using histograms. Between-group comparisons for continuous data were performed with the use of the t test or the Mann-Whitney U test and for categorical data with the use of Fisher exact test or chi-square test where appropriate.

[3] = system: high-risk cardiac surgical patients undergoing cardiopulmonary bypass; remark: listed apart in the source
Description: as §1
Specific adverse events targeted for detection included the incidence of hypernatremia ([Na^+]>150 mEq/L), hypokalemia ([K^+]<3.5 mEq/L), alkalemia (pH>7.50), post-operative atrial fibrillation and other post-operative arrhythmias (supraventricular arrhythmias, ventricular tachycardia and ventricular fibrillation) during study treatment.
as §2

[4] = from before to 24 hours after commencement of study infusion, N = 50
[5] = sodium bicarbonate vs sodium chloride
[6] = sodium bicarbonate vs sodium chloride, P<0.001

Compound: O=C([O-])O.[Na+] [sodium bicarbonate]
- urine pH ([1]; 6 and 24 hours after commencement of study drug infusion, P<0.001 vs control, FIG. 1C): induced urinary alkalinization
- Length of stay in hospital, mean (SEM) ([1]; N = 50, P=0.60): 10.4 (1.0) days
- Length of ventilation, mean (SEM) ([1]; N = 50, P=0.83): 1657 (299) min
- Length of stay in intensive care unit, mean (SEM) ([1]; N = 50, P=0.96): 73.8 (14.0) hrs
- Hospital deaths ([1]; N = 50, P>0.99): 1 (2) no. (%)
- Renal replacement therapy ([1]; N = 50, P>0.99): 2 (4) no. (%)
- Change in plasma base excess, mean (SEM) [1, 4]: 3.8 (0.5)
- Change in plasma bicarbonate, mean (SEM) [1, 4]: 3.7 (0.5) mEq/L
- Change in plasma pH, mean (SEM) [1, 4]: 0.04 (0.01)
- Length of stay in hospital, Mean Difference [1, 5]: -0.8 days
- Length of stay in intensive care unit, Mean Difference [1, 5]: -1.0 h
- Length of ventilation, Mean Difference [1, 5]: -99 min
- Change in plasma base excess, Mean Difference [1, 6]: 6.0
- Change in plasma bicarbonate, Mean Difference [1, 6]: 5.2 mEq/L
- Change in plasma pH, Mean Difference [1, 6]: 0.07
- increase in urinary NGAL concentration ([2]; baseline to peak within first 24 hours post-operatively, compared to sodium chloride, P=0.009, FIG. 1B): attenuated
- relative increase in plasma creatinine ([2]; baseline to peak within first five post-operative days, mean ± SEM, P=0.01 vs sodium chloride): 28.5±6.5%
- absolute increase in plasma creatinine concentration ([2]; compared to sodium chloride patients, P=0.01, FIG. 1A): less
- patients with a plasma creatinine increase greater than 50% from baseline to peak value ([2]; patients/N, control 15/50): 8/50
- patients who developed post-operative AKI ([2]; patients/N, plasma creatinine increase >0.5 mg/dL (44 μmol/L) or >25% from baseline to peak within first five post-operative days, 4 mEq/kg i.v. over 24 hours): 16/50
- odds ratio for post-operative AKI ([2]; vs. sodium chloride control group (26/50), 95% CI 0.19-0.98, P=0.04): 0.43
- odds ratio for plasma creatinine increase greater than 50% ([2]; vs. sodium chloride control, 95% CI 0.17-1.17, P=0.10): 0.44
- absolute risk reduction for AKI ([2]; vs. sodium chloride control, 95% CI 1.1-39.0%): 20%
- patients with plasma sodium concentration >150 mEq/L (hypernatremia) ([3]; during study treatment, both groups): No patient
- patients with an episode of supraventricular tachycardia ([3]; during study treatment, of 50 patients): One
- patients with a pH level greater than 7.50 (alkalemia) ([3]; during study treatment, of 50 patients, P=0.24): three
- incidence of new-onset atrial fibrillation ([3]; during treatment, patients/N, control 4/50, P>0.99): 5/50
- patients with plasma potassium <3.5 mEq/L (hypokalemia) ([3]; patients/N, control 1/50, P=0.20): 5/50
